Results as given in EPA's ToxRefDB 2.

What was measured:
[1] = tested on: rat; conditions: Combined chronic toxicity/carcinogenicity; sprague dawley; Oral; Feed; dose end: 2 year; group: systemic; systemic / in life observation / body weight / body weight gain
[2] = tested on: rat; conditions: Subchronic oral toxicity in rodents, other, Feed, dose end: 92 day, group: systemic
[3] = tested on: rabbit; conditions: Prenatal developmental toxicity study, new zealand white, Oral, Gavage/Intubation, dose end: 19 GD
[4] = tested on: rat; conditions: Combined chronic toxicity/carcinogenicity, sprague dawley, Oral, Feed, dose end: 104 week, group: systemic
[5] = tested on: rat; conditions: Subchronic oral toxicity in rodents, Tif: RAIf (SPF), Feed, dose end: 13 week, group: systemic, systemic / in life observation / body weight / body weight + systemic / in life observation / body weight / body weight gain + systemic / …
[6] = tested on: dog; conditions: Subchronic oral toxicity in nonrodent, beagle, Feed, dose end: 13 week, group: systemic
[7] = tested on: mouse; conditions: Carcinogenicity, cd1, Oral, Feed, dose end: 91 week, group: systemic
[8] = tested on: rabbit; conditions: Prenatal developmental toxicity study, new zealand white, Oral, Gavage/Intubation, dose end: 19 GD; remark: listed apart in the source
[9] = tested on: rat; conditions: Prenatal developmental toxicity study, sprague dawley, Oral, Gavage/Intubation, dose end: 15 GD
[10] = tested on: dog; conditions: Chronic toxicity; beagle; Oral; Feed; dose end: 52 week; group: systemic; systemic / in life observation / clinical signs / [other] + systemic / in life observation / clinical signs / tachycardia + systemic / …
[11] = tested on: dog; conditions: Chronic toxicity; beagle; Oral; Feed; dose end: 52 week; group: systemic; systemic / pathology gross / heart / discolored + systemic / pathology gross / heart / distended + systemic / pathology gross / heart / …
[12] = systemic / hematology / leukocyte (wbc) count differential / leukocyte (wbc)
[13] = group: developmental, developmental / developmental malformation / bone / delayed ossification
[14] = group: maternal, reproductive / reproductive performance / resorptions / resorptions + systemic / in life observation / body weight / body weight + systemic…
[15] = systemic / in life observation / body weight / body weight gain + systemic / in life observation / food consumption / food consumption + …
[16] = systemic / pathology microscopic / kidney / basophilia + systemic / pathology microscopic / kidney / hyperplasia + systemic / hematology / …
[17] = systemic / in life observation / body weight / body weight gain + systemic / hematology / erythrocyte (rbc) count differential / erythrocyte…
[18] = group: maternal, reproductive / reproductive performance / resorptions / resorptions + systemic / in life observation / clinical signs / discharge on …
[19] = group: developmental, developmental / developmental malformation / bone / incomplete ossification
[20] = group: maternal, reproductive / reproductive performance / aborted / aborted + systemic / in life observation / body weight / body weight gain + systemic / …

CCNc1nc(Cl)nc(NC(C)C)n1 [Atrazine]
LEL [1]: 25 mg/kg/day | LOAEL [1]: 25 mg/kg/day | NEL [1]: 3.5 mg/kg/day | NOAEL [1]: 3.5 mg/kg/day | LEL [2, 12]: 0.659 mg/kg/day | NEL [2, 12]: < 0.659 mg/kg/day | LOAEL ([2]; systemic / in life observation / body weight / body weight + systemic / in life observation / body weight / body weight gain): 34 mg/kg/day | NOAEL ([2]; systemic / in life observation / body weight / body weight + systemic / in life observation / body weight / body weight gain + systemic / …): 3.3 mg/kg/day | LEL [3, 13]: 75 mg/kg/day | LOAEL [3, 13]: 75 mg/kg/day | NEL [3, 13]: 5 mg/kg/day | NOAEL [3, 13]: 5 mg/kg/day | LEL [3, 14]: 75 mg/kg/day | LOAEL [3, 14]: 75 mg/kg/day | NEL [3, 14]: 5 mg/kg/day | NOAEL [3, 14]: 5 mg/kg/day | LOAEL ([4]; systemic / in life observation / body weight / body weight gain + systemic / in life observation / food consumption / food consumption): 25 mg/kg/day | NEL [4, 15]: 0.5 mg/kg/day | NOAEL [4, 15]: 3.5 mg/kg/day | LEL ([4]; systemic / pathology microscopic / mammary gland / adenocarcinoma): 3.5 mg/kg/day | LEL [5]: 34.9 mg/kg/day | LOAEL [5]: 34.9 mg/kg/day | NEL [5]: 3.2 mg/kg/day | NOAEL [5]: 3.2 mg/kg/day | LOAEL ([6]; systemic / pathology microscopic / kidney / basophilia + systemic / pathology microscopic / kidney / hyperplasia): 28.9 mg/kg/day | LEL [6, 16]: 28.9 mg/kg/day | NEL [6, 16]: 3.71 mg/kg/day | NOAEL [6, 16]: 3.71 mg/kg/day | LOAEL ([7]; systemic / in life observation / body weight / body weight gain): 194 mg/kg/day | LEL [7, 17]: 194 mg/kg/day | NEL [7, 17]: 38.4 mg/kg/day | NOAEL [7, 17]: 38.4 mg/kg/day | LEL [8, 13]: 75 mg/kg/day | LOAEL [8, 13]: 75 mg/kg/day | NEL [8, 13]: 5 mg/kg/day | NOAEL [8, 13]: 5 mg/kg/day | LEL [8, 18]: 75 mg/kg/day | LOAEL [8, 18]: 75 mg/kg/day | NEL [8, 18]: 5 mg/kg/day | NOAEL [8, 18]: 5 mg/kg/day | LEL [9, 19]: 5 mg/kg/day | LOAEL [9, 19]: 100 mg/kg/day | NEL [9, 19]: < 5 mg/kg/day | NOAEL [9, 19]: 25 mg/kg/day | LEL ([9]; group: maternal, reproductive / reproductive performance / aborted / aborted): 25 mg/kg/day | NEL [9, 20]: 5 mg/kg/day | NOAEL [9, 20]: 25 mg/kg/day | LOAEL ([9]; group: maternal, systemic / in life observation / body weight / body weight gain + systemic / in life observation / food consumption / food consumption): 100 mg/kg/day | LEL [10]: 33.6 mg/kg/day | LOAEL [10]: 33.6 mg/kg/day | NEL [10]: 4.97 mg/kg/day | NOAEL [10]: 4.97 mg/kg/day | LEL [11]: 24.1 mg/kg/day | LOAEL [11]: 24.1 mg/kg/day | NEL [11]: 3.61 mg/kg/day | NOAEL [11]: 3.61 mg/kg/day
